Test results taken from patent US12077503B2, “Substituted cyclic amides and their use as herbicides” (FMC CORPORATION, priority 2015, dated 2024).

Tests used:
Format in all cases: in vivo
[1] = tested on: barnyardgrass (Echinochloa crus-galli); experiment: Test G Pre-Emergence Protocol; settings: Echinochloa crus-galli, pre-emergence, 312 h, evaluated after 13 days; for pest or weed control at 15.625 g/ha: 15.625 g ai/ha, read-out: Barnyard grass damage rating (100=total damage to plant; 0=no damage to plant); for pest or weed control at 62.5 g/ha: 62.5 g ai/ha, 100=total damage to plant, 0=no damage to plant, read-out: plant damage rating, Barnyardgrass; for pest or weed control at 250 g/ha: 250 g ai/ha, read-out: Barnyardgrass damage rating (100=total damage to plant; 0=no damage to plant)
Summary of the method: (§1)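 Visual injury (0–100) at day 13 after a single pre-emergence spray. Rates: 15.625, 62.5, 250 g/ha in acetone–water 50:50 with 0.5% Tween 20. Growth conditions: 24/16° C, 14 h light, 65% humidity.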

[2] = tested on: corn (Zea mays); experiment: Test G Pre-Emergence Protocol; settings: Zea mays, pre-emergence, 312 h, evaluated after 13 days; for plant injury at 15.625 g/ha: 15.625 g ai/ha; for plant injury at 15.625 g/ha / plant injury at 250 g/ha: read-out: Corn damage rating (100=total damage to plant; 0=no damage to plant); for plant injury at 62.5 g/ha: 62.5 g ai/ha, 100=total damage to plant, 0=no damage to plant, read-out: plant damage rating, Corn; for plant injury at 250 g/ha: 250 g ai/ha
Summary of the method: as §1

[3] = tested on: giant foxtail (Setaria faberi); experiment: Test G Pre-Emergence Protocol; settings: Setaria faberi, pre-emergence, 312 h, evaluated after 13 days; for pest or weed control at 15.625 g/ha: 15.625 g ai/ha; for pest or weed control at 15.625 g/ha / pest or weed control at 250 g/ha: read-out: Foxtail, Giant damage rating (100=total damage to plant; 0=no damage to plant); for pest or weed control at 62.5 g/ha: 62.5 g ai/ha, 100=total damage to plant, 0=no damage to plant, read-out: plant damage rating, Foxtail, Giant; for pest or weed control at 250 g/ha: 250 g ai/ha
Summary of the method: as §1

[4] = tested on: ivy-leaved morning glory (Ipomoea hederacea); experiment: Test G Pre-Emergence Protocol; settings: Ipomoea, pre-emergence, 312 h, evaluated after 13 days; for pest or weed control at 15.625 g/ha: 15.625 g ai/ha, read-out: Morning-glory, Ivy-leaved damage rating (100=total damage to plant; 0=no damage to plant); for pest or weed control at 62.5 g/ha: 62.5 g ai/ha, 100=total damage to plant, 0=no damage to plant, read-out: plant damage rating, Morningglory, Ivy-leaved; for pest or weed control at 250 g/ha: 250 g ai/ha, read-out: Morningglory, Ivy-leaved damage rating (100=total damage to plant; 0=no damage to plant)
Summary of the method: as §1

[5] = tested on: redroot pigweed (Amaranthus retroflexus); experiment: Test G Pre-Emergence Protocol; settings: Amaranthus retroflexus, pre-emergence, 312 h, evaluated after 13 days; for pest or weed control at 15.625 g/ha: 15.625 g ai/ha; for pest or weed control at 15.625 g/ha / pest or weed control at 250 g/ha: read-out: Pigweed, Redroot damage rating (100=total damage to plant; 0=no damage to plant); for pest or weed control at 62.5 g/ha: 62.5 g ai/ha, 100=total damage to plant, 0=no damage to plant, read-out: plant damage rating, Pigweed, Redroot; for pest or weed control at 250 g/ha: 250 g ai/ha
Summary of the method: as §1

[6] = tested on: velvetleaf (Abutilon theophrasti); experiment: Test G Pre-Emergence Protocol; settings: Abutilon theophrasti, pre-emergence, 312 h, evaluated after 13 days; for pest or weed control at 15.625 g/ha: 15.625 g ai/ha; for pest or weed control at 15.625 g/ha / pest or weed control at 250 g/ha: read-out: Velvetleaf damage rating (100=total damage to plant; 0=no damage to plant); for pest or weed control at 62.5 g/ha: 62.5 g ai/ha, 100=total damage to plant, 0=no damage to plant, read-out: plant damage rating, Velvetleaf; for pest or weed control at 250 g/ha: 250 g ai/ha
Summary of the method: as §1

[7] = tested on: barnyardgrass (Echinochloa crus-galli); experiment: Test G Post-Emergence Protocol; settings: Echinochloa crus-galli, post-emergence, 312 h; for pest or weed control at 15.625 g/ha: 15.625 g ai/ha, evaluated after 13 days (100=total damage to plant; 0=no damage to plant), read-out: Barnyardgrass damage rating; for pest or weed control at 62.5 g/ha: 62.5 g ai/ha, read-out: Barnyardgrass damage rating (100=total damage to plant; 0=no damage to plant); for pest or weed control at 62.5 g/ha / pest or weed control at 250 g/ha: evaluated after 13 days; for pest or weed control at 250 g/ha: 250 g ai/ha, read-out: damage to plant, Barnyardgrass (100=total damage to plant; 0=no damage to plant)
Summary of the method: (§2)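 Scores run 0 (no damage) to 100 (total damage) and were taken 13 days after spraying. Plants had been raised in pots for 8 days under glasshouse control (24/16 °C, 14 h photoperiod, 65% humidity) and then treated at 15.625, 62.5 or 250 g/ha.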

[8] = tested on: corn (Zea mays); experiment: Test G Post-Emergence Protocol; settings: Zea mays, post-emergence, 312 h; for plant injury at 15.625 g/ha: 15.625 g ai/ha, evaluated after 13 days (100=total damage to plant; 0=no damage to plant), read-out: Corn damage rating; for plant injury at 62.5 g/ha: 62.5 g ai/ha, read-out: Corn damage rating (100=total damage to plant; 0=no damage to plant); for plant injury at 62.5 g/ha / plant injury at 250 g/ha: evaluated after 13 days; for plant injury at 250 g/ha: 250 g ai/ha, read-out: damage to plant, Corn (100=total damage to plant; 0=no damage to plant)
Summary of the method: as §2

[9] = tested on: giant foxtail (Setaria faberi); experiment: Test G Post-Emergence Protocol; settings: Setaria faberi, post-emergence, 312 h; for pest or weed control at 15.625 g/ha: 15.625 g ai/ha, evaluated after 13 days (100=total damage to plant; 0=no damage to plant), read-out: Foxtail, Giant damage rating; for pest or weed control at 62.5 g/ha: 62.5 g ai/ha, read-out: Foxtail, Giant damage rating (100=total damage to plant; 0=no damage to plant); for pest or weed control at 62.5 g/ha / pest or weed control at 250 g/ha: evaluated after 13 days; for pest or weed control at 250 g/ha: 250 g ai/ha, read-out: damage to plant, Foxtail, Giant (100=total damage to plant; 0=no damage to plant)
Summary of the method: as §2

[10] = tested on: ivy-leaved morning glory (Ipomoea hederacea); experiment: Test G Post-Emergence Protocol; settings: Ipomoea, post-emergence, 312 h; for pest or weed control at 15.625 g/ha: 15.625 g ai/ha, evaluated after 13 days (100=total damage to plant; 0=no damage to plant), read-out: Morningglory, Ivy-leaved damage rating; for pest or weed control at 62.5 g/ha: 62.5 g ai/ha, read-out: Morningglory, Ivy-leaved damage rating (100=total damage to plant; 0=no damage to plant); for pest or weed control at 62.5 g/ha / pest or weed control at 250 g/ha: evaluated after 13 days; for pest or weed control at 250 g/ha: 250 g ai/ha, read-out: damage to plant, Morningglory, Ivy-leaved (100=total damage to plant; 0=no damage to plant)
Summary of the method: as §2

[11] = tested on: redroot pigweed (Amaranthus retroflexus); experiment: Test G Post-Emergence Protocol; settings: Amaranthus retroflexus, post-emergence, 312 h; for pest or weed control at 15.625 g/ha: 15.625 g ai/ha, evaluated after 13 days (100=total damage to plant; 0=no damage to plant), read-out: Pigweed, Redroot damage rating; for pest or weed control at 62.5 g/ha: 62.5 g ai/ha, read-out: Pigweed, Redroot damage rating (100=total damage to plant; 0=no damage to plant); for pest or weed control at 62.5 g/ha / pest or weed control at 250 g/ha: evaluated after 13 days; for pest or weed control at 250 g/ha: 250 g ai/ha, read-out: damage to plant, Pigweed, Redroot (100=total damage to plant; 0=no damage to plant)
Summary of the method: as §2

[12] = tested on: velvetleaf (Abutilon theophrasti); experiment: Test G Post-Emergence Protocol; settings: Abutilon theophrasti, post-emergence, 312 h; for pest or weed control at 15.625 g/ha: 15.625 g ai/ha, evaluated after 13 days (100=total damage to plant; 0=no damage to plant), read-out: Velvetleaf damage rating; for pest or weed control at 62.5 g/ha: 62.5 g ai/ha, read-out: Velvetleaf damage rating (100=total damage to plant; 0=no damage to plant); for pest or weed control at 62.5 g/ha / pest or weed control at 250 g/ha: evaluated after 13 days; for pest or weed control at 250 g/ha: 250 g ai/ha, read-out: damage to plant, Velvetleaf (100=total damage to plant; 0=no damage to plant)
Summary of the method: as §2

Structure (SMILES) | pest or weed control at 15.625 g/ha [1] | pest or weed control at 62.5 g/ha [1] | pest or weed control at 250 g/ha [1] | plant injury at 15.625 g/ha [2] | plant injury at 62.5 g/ha [2] | plant injury at 250 g/ha [2] | pest or weed control at 15.625 g/ha [3] | pest or weed control at 62.5 g/ha [3] | pest or weed control at 250 g/ha [3] | pest or weed control at 15.625 g/ha [4] | pest or weed control at 62.5 g/ha [4] | pest or weed control at 250 g/ha [4] | pest or weed control at 15.625 g/ha [5] | pest or weed control at 62.5 g/ha [5] | pest or weed control at 250 g/ha [5] | pest or weed control at 15.625 g/ha [6] | pest or weed control at 62.5 g/ha [6] | pest or weed control at 250 g/ha [6] | pest or weed control at 15.625 g/ha [7] | pest or weed control at 62.5 g/ha [7] | other results
Cc1cccc(NC(=O)[C@@H]2C(=O)N(C)C[C@H]2c2ccc(C(F)(F)F)cc2)c1Br (racemic) [Compound 1617] | 10% | 30% | 80% | 0% | 0% | 0% | 20% | 80% | 90% | 0% | 0% | 0% | 0% | 10% | 20% | 0% | 0% | 10% | 0% | 0% | pest or weed control at 250 g/ha [7]: 60%; plant injury at 15.625 g/ha [8]: 0%; plant injury at 62.5 g/ha [8]: 0%; plant injury at 250 g/ha [8]: 0%; pest or weed control at 15.625 g/ha [9]: 20%; pest or weed control at 62.5 g/ha [9]: 40%; pest or weed control at 250 g/ha [9]: 70%; pest or weed control at 15.625 g/ha [10]: 0%; pest or weed control at 62.5 g/ha [10]: 0%; pest or weed control at 250 g/ha [10]: 0%; pest or weed control at 15.625 g/ha [11]: 0%; pest or weed control at 62.5 g/ha [11]: 0%; pest or weed control at 250 g/ha [11]: 0%; pest or weed control at 15.625 g/ha [12]: 0%; pest or weed control at 62.5 g/ha [12]: 0%; pest or weed control at 250 g/ha [12]: 0%
CN1C[C@H](c2ccc(C(F)(F)F)cc2)[C@@H](C(=O)Nc2ccc(F)c(Cl)c2)C1=O (racemic) [Compound 1434] | 0% | 0% | 20% | 0% | 0% | 0% | 0% | 20% | 50% | 0% | 0% | 0% | 0% | 0% | 0% | 0% | 0% | 0% | 0% | 0% | pest or weed control at 250 g/ha [7]: 20%; plant injury at 15.625 g/ha [8]: 10%; plant injury at 62.5 g/ha [8]: 0%; plant injury at 250 g/ha [8]: 10%; pest or weed control at 15.625 g/ha [9]: 0%; pest or weed control at 62.5 g/ha [9]: 0%; pest or weed control at 250 g/ha [9]: 30%; pest or weed control at 15.625 g/ha [10]: 0%; pest or weed control at 62.5 g/ha [10]: 0%; pest or weed control at 250 g/ha [10]: 0%; pest or weed control at 15.625 g/ha [11]: 0%; pest or weed control at 62.5 g/ha [11]: 0%; pest or weed control at 250 g/ha [11]: 20%; pest or weed control at 15.625 g/ha [12]: 0%; pest or weed control at 62.5 g/ha [12]: 0%; pest or weed control at 250 g/ha [12]: 10%
